Assay results as given in ChEMBL document CHEMBL1201862, “PubChem BioAssay data set” (2004).
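Cultured in 96-well plates, cells were exposed to test compound for 48 hours across five concentrations. Abbreviation: GI50, concentration required for 50% inhibition of growth.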 Calls of active or inactive are those of the source. No stated cut-off is given here; in the data, active = GI50 up to about 1.1 µM and inactive = higher.

Key:
Assay in all cases: DTP human tumour cell line panel, 48 h
A498 = system: A498
BT-549 = system: BT-549
CAKI-1 = system: CAKI-1
CCRF-CEM = system: CCRF-CEM
HCT-116 = system: HCT-116
HL-60 = system: HL-60
IGROV-1 = system: IGROV-1
LOX IMVI = system: LOX IMVI
MCF7 = system: MCF7
MOLT-4 = system: MOLT-4
OVCAR-5 = system: OVCAR-5
RXF 393 = system: RXF 393
SK-MEL-2 = system: SK-MEL-2
SK-OV-3 = system: SK-OV-3
SNB-75 = system: SNB-75
SW-620 = system: SW-620
TK-10 = system: TK-10
UACC-257 = system: UACC-257

| SMILES | GI50 (A498) | GI50 (BT-549) | GI50 (CAKI-1) | GI50 (CCRF-CEM) | GI50 (HCT-116) | GI50 (HL-60) | GI50 (IGROV-1) | GI50 (LOX IMVI) | GI50 (MCF7) | GI50 (MOLT-4) | GI50 (OVCAR-5) | GI50 (RXF 393) | GI50 (SK-MEL-2) | GI50 (SK-OV-3) | GI50 (SNB-75) | GI50 (SW-620) | GI50 (TK-10) | GI50 (UACC-257) |
| --- | --- | --- | --- | --- | --- | --- | --- | --- | --- | --- | --- | --- | --- | --- | --- | --- | --- | --- |
| CC(C)CNC(=O)O | > 100 µM (inactive) | > 100 µM (inactive) | > 100 µM (inactive) | > 100 µM (inactive) | > 100 µM (inactive) | > 100 µM (inactive) | > 100 µM (inactive) | > 100 µM (inactive) | > 100 µM (inactive) | > 100 µM (inactive) | > 100 µM (inactive) | > 100 µM (inactive) | > 100 µM (inactive) | > 100 µM (inactive) | > 100 µM (inactive) | > 100 µM (inactive) | > 100 µM (inactive) | > 100 µM (inactive) |
| CC1=NN(c2cc(Cl)c(S(=O)(=O)O)cc2Cl)C2(C1)C(Cl)C(=O)N2c1nc2ccccc2s1 (stereo not drawn) | 80 µM (inactive) | > 100 µM (inactive) | > 100 µM (inactive) | 30.3 µM (inactive) | > 100 µM (inactive) | > 100 µM (inactive) | 35 µM (inactive) | 29.4 µM (inactive) | 46.2 µM (inactive) | 45.6 µM (inactive) | > 100 µM (inactive) | > 100 µM (inactive) | > 100 µM (inactive) | – | > 100 µM (inactive) | > 100 µM (inactive) | 68.5 µM (inactive) | > 100 µM (inactive) |
| CC(C)(C)c1cc(C(C)(C)C)c2sc(=O)oc2c1O | 13.7 µM (inactive) | 18.7 µM (inactive) | 12.4 µM (inactive) | 18.8 µM (inactive) | 12.9 µM (inactive) | 5.6 µM (inactive) | 14.2 µM (inactive) | 14 µM (inactive) | 12.6 µM (inactive) | 8.26 µM (inactive) | 18.5 µM (inactive) | 11.9 µM (inactive) | 15.5 µM (inactive) | 19.5 µM (inactive) | 13.7 µM (inactive) | – | 11.8 µM (inactive) | 5.71 µM (inactive) |
| CC(=O)NC1C(OCc2ccccc2)OC(CO)C(O)C1OC(C)C(=O)NC(C)C(=O)NC(CCC(=O)NCCCNc1c2ccccc2nc2cccc([N+](=O)[O-])c12)C(N)=O (stereo not drawn) | 2.01 µM (inactive) | 2.74 µM (inactive) | 1.7 µM (inactive) | 7.48 µM (inactive) | 0.263 µM (active) | 1.26 µM (inactive) | 19.1 µM (inactive) | 3.65 µM (inactive) | 0.64 µM (active) | 3.27 µM (inactive) | 2.24 µM (inactive) | 1.31 µM (inactive) | 1.32 µM (inactive) | 7.26 µM (inactive) | 1.99 µM (inactive) | 0.229 µM (active) | 2.94 µM (inactive) | 2 µM (inactive) |
| Oc1ccc2ccccc2c1/C=C/c1ccc2c(Br)cc(Br)c(O)c2n1 | 5.64 µM (inactive) | 12.3 µM (inactive) | 11 µM (inactive) | 2.38 µM (inactive) | 2.96 µM (inactive) | 2.87 µM (inactive) | 2.17 µM (inactive) | 2.6 µM (inactive) | 1.24 µM (inactive) | 1.59 µM (inactive) | 7.76 µM (inactive) | 8.61 µM (inactive) | 8.34 µM (inactive) | 9.4 µM (inactive) | 15.2 µM (inactive) | 4.9 µM (inactive) | 11 µM (inactive) | 8.49 µM (inactive) |
| OC(c1ccco1)C(F)(F)c1nc2ccccc2o1 (stereo not drawn) | 62.1 µM (inactive) | > 100 µM (inactive) | > 100 µM (inactive) | > 100 µM (inactive) | > 100 µM (inactive) | > 100 µM (inactive) | > 100 µM (inactive) | > 100 µM (inactive) | 41.1 µM (inactive) | > 100 µM (inactive) | – | > 100 µM (inactive) | > 100 µM (inactive) | 68.4 µM (inactive) | > 100 µM (inactive) | > 100 µM (inactive) | > 100 µM (inactive) | > 100 µM (inactive) |
| COP(=O)(OC)[C@@](O)(c1ccccc1)[C@@H](O)[C@@H](O)c1ccccc1 | > 100 µM (inactive) | > 100 µM (inactive) | > 100 µM (inactive) | 21.7 µM (inactive) | 29.3 µM (inactive) | > 100 µM (inactive) | 87.5 µM (inactive) | 17.8 µM (inactive) | 27.6 µM (inactive) | – | > 100 µM (inactive) | > 100 µM (inactive) | > 100 µM (inactive) | > 100 µM (inactive) | > 100 µM (inactive) | 44.7 µM (inactive) | > 100 µM (inactive) | > 100 µM (inactive) |
| Cc1cccc(C)c1NC(=O)C(=O)CC(=O)c1sc(Nc2c(C)cccc2C)nc1C | 86.7 µM (inactive) | > 100 µM (inactive) | > 100 µM (inactive) | > 100 µM (inactive) | > 100 µM (inactive) | 25.5 µM (inactive) | > 100 µM (inactive) | > 100 µM (inactive) | > 100 µM (inactive) | > 100 µM (inactive) | > 100 µM (inactive) | 61.1 µM (inactive) | > 100 µM (inactive) | > 100 µM (inactive) | 22.7 µM (inactive) | > 100 µM (inactive) | > 100 µM (inactive) | > 100 µM (inactive) |
| CC(C)=CCC[C@@H](C)C1=C(Nc2ccccc2Cl)C(=O)C(C)=C(O)C1=O | 5.42 µM (inactive) | 7.16 µM (inactive) | 4.06 µM (inactive) | 1.01 µM (active) | 3.91 µM (inactive) | 0.612 µM (active) | 2.45 µM (inactive) | 3.26 µM (inactive) | 7.69 µM (inactive) | 2.04 µM (inactive) | 14.6 µM (inactive) | 11.7 µM (inactive) | 3.66 µM (inactive) | 5.14 µM (inactive) | 1.87 µM (inactive) | 4.71 µM (inactive) | 4.88 µM (inactive) | 6.46 µM (inactive) |
| COc1ccc2oc(=O)c(-c3nc4ccccc4o3)cc2c1 | 67.9 µM (inactive) | > 100 µM (inactive) | > 100 µM (inactive) | > 100 µM (inactive) | > 100 µM (inactive) | 29.9 µM (inactive) | > 100 µM (inactive) | > 100 µM (inactive) | 32.7 µM (inactive) | > 100 µM (inactive) | > 100 µM (inactive) | 53.3 µM (inactive) | > 100 µM (inactive) | > 100 µM (inactive) | 55.1 µM (inactive) | > 100 µM (inactive) | > 100 µM (inactive) | > 100 µM (inactive) |
| CC[C@](O)(CC(=O)O[C@H]1C(=O)O[C@@H]2C[C@H]3C(C)=CC(=O)[C@@H](O)[C@]3(C)[C@H]3[C@@]4(O)OC[C@]32[C@@H]1[C@@H](C)[C@H]4O)C(C)C | < 0.01 µM (active) | < 0.01 µM (active) | < 0.01 µM (active) | < 0.01 µM (active) | < 0.01 µM (active) | < 0.01 µM (active) | < 0.01 µM (active) | < 0.01 µM (active) | < 0.01 µM (active) | < 0.01 µM (active) | < 0.01 µM (active) | < 0.01 µM (active) | < 0.01 µM (active) | < 0.01 µM (active) | < 0.01 µM (active) | < 0.01 µM (active) | < 0.01 µM (active) | < 0.01 µM (active) |
| O=C(O)c1ccc2[nH]c(=O)oc2c1 | > 100 µM (inactive) | > 100 µM (inactive) | > 100 µM (inactive) | > 100 µM (inactive) | > 100 µM (inactive) | > 100 µM (inactive) | > 100 µM (inactive) | > 100 µM (inactive) | > 100 µM (inactive) | > 100 µM (inactive) | > 100 µM (inactive) | > 100 µM (inactive) | > 100 µM (inactive) | > 100 µM (inactive) | > 100 µM (inactive) | > 100 µM (inactive) | > 100 µM (inactive) | > 100 µM (inactive) |
| C=CCC(CNC(=O)OCc1ccccc1)O[Si](C)(C)C(C)(C)C (stereo not drawn) | 38.8 µM (inactive) | 55 µM (inactive) | 29.4 µM (inactive) | 28.3 µM (inactive) | 20.8 µM (inactive) | 20.1 µM (inactive) | 27.4 µM (inactive) | 23.4 µM (inactive) | 22.3 µM (inactive) | 19.6 µM (inactive) | 26.3 µM (inactive) | 17.3 µM (inactive) | 16.6 µM (inactive) | 61.5 µM (inactive) | 59.3 µM (inactive) | 38.1 µM (inactive) | 74.5 µM (inactive) | 25.4 µM (inactive) |
| CSc1nc(=S)[nH]c2[nH]nc(C)c12 | 73.3 µM (inactive) | > 100 µM (inactive) | > 100 µM (inactive) | > 100 µM (inactive) | > 100 µM (inactive) | > 100 µM (inactive) | – | > 100 µM (inactive) | > 100 µM (inactive) | > 100 µM (inactive) | > 100 µM (inactive) | > 100 µM (inactive) | > 100 µM (inactive) | > 100 µM (inactive) | > 100 µM (inactive) | > 100 µM (inactive) | > 100 µM (inactive) | > 100 µM (inactive) |
| Cc1cc(=O)oc2cc(OCc3c(F)cccc3Cl)ccc12 | > 100 µM (inactive) | 28.2 µM (inactive) | 17.2 µM (inactive) | – | 4.41 µM (inactive) | 3.76 µM (inactive) | 9.46 µM (inactive) | 11.5 µM (inactive) | 4.6 µM (inactive) | – | > 100 µM (inactive) | 7.23 µM (inactive) | 4.55 µM (inactive) | – | 9.02 µM (inactive) | – | > 100 µM (inactive) | 78.5 µM (inactive) |
| COc1ccc(C2SCC(=O)N2NC(=O)C(C)Oc2ccccc2Cl)cc1 (stereo not drawn) | 28.1 µM (inactive) | 85.7 µM (inactive) | > 100 µM (inactive) | 31.8 µM (inactive) | 40.3 µM (inactive) | 17.1 µM (inactive) | 56.2 µM (inactive) | 24.5 µM (inactive) | 32.4 µM (inactive) | 27 µM (inactive) | > 100 µM (inactive) | 27.7 µM (inactive) | 18.7 µM (inactive) | – | 56.6 µM (inactive) | 49.4 µM (inactive) | 63.2 µM (inactive) | > 100 µM (inactive) |
